Values quoted from earlier work as cited in publication PMC7365549 (ACS Omega, 2020).
pKi: −log10 of the molar value.

Columns and labels:
[1] = biological target: T1, human serotonin receptor 5-HT3 (Homo sapiens, UniProt P46098); conditions: read-out: Inhibition Constants (Ki) 5-HT3; comparison values
T1 sequence (P46098 24-478): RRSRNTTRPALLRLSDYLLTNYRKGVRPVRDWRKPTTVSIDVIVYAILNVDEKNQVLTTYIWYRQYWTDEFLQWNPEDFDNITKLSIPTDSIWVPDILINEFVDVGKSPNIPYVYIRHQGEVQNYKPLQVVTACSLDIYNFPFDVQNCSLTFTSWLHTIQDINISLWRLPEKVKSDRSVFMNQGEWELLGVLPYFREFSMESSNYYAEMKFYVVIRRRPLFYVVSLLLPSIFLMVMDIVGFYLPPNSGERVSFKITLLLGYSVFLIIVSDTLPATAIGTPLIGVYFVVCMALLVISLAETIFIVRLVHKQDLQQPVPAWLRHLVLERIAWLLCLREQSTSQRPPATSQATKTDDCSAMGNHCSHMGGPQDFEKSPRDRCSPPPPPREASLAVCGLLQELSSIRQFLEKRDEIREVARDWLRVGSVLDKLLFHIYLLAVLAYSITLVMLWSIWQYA

[2] = biological target: human serotonin receptor 5-HT2A (Homo sapiens, UniProt P28223); conditions: read-out: Inhibition Constants (Ki) 5-HT2A; comparison values
human serotonin receptor 5-HT2A, sequence (P28223 whole entry): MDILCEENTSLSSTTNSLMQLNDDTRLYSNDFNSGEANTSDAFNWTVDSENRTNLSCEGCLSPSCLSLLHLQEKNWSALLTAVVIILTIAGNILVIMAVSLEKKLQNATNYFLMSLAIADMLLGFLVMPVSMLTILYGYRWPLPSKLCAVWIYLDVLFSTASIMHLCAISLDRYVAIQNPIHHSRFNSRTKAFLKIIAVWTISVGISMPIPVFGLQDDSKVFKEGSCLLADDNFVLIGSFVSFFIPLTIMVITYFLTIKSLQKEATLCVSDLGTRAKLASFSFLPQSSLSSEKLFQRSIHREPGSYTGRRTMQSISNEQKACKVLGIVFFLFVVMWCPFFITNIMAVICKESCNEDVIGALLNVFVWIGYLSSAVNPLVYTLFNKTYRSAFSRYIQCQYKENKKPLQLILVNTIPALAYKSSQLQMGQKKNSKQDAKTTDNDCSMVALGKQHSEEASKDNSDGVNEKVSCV

[3] = biological target: T2, human serotonin receptor 5-HT1A (Homo sapiens, UniProt P08908); conditions: read-out: Inhibition Constants (Ki) 5-HT1A; comparison values
T2 sequence (P08908 1-422): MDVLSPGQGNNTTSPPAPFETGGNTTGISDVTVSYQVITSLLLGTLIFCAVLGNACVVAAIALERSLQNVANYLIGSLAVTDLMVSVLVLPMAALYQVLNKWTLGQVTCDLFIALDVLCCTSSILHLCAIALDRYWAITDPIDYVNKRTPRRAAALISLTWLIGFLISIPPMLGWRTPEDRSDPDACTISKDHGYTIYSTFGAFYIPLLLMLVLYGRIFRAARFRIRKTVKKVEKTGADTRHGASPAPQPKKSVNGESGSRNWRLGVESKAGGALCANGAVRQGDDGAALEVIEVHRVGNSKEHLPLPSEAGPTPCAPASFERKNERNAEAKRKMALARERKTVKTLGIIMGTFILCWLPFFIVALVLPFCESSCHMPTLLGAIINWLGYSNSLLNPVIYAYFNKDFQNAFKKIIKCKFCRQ

[4] = biological target: 5-HT3; conditions: read-out: Ki, binding to 5-HT3 receptor

Compound	pKi [1]	pKi [2]	pKi [3]	pKi [4]
CN(C)CCc1c[nH]c2cccc(OP(=O)(O)O)c12 [psilocybin]	< 5.00	< 5.00	< 5.00	
C[N+](C)(C)CCc1c[nH]c2ccc([O-])cc12 [Bufotenidine, bufotenidine]				7.77
CN(C)CCc1c[nH]c2cccc(O)c12 [psilocin]	< 5.00			
